From BigSolDB 2.1

CO[C@H]1O[C@@H]2O[C@@]3(C)CC[C@H]4[C@H](C)CC[C@@H]([C@H]1C)[C@@]24OO3
solubility (mole fraction)
Details	in ethanol	in methanol
289.05 K	0.0395	–
289.45 K	–	0.0263
290.85 K	0.0426	–
291.15 K	–	0.0295
293.95 K	0.0492	–
294.05 K	–	0.0343
296.95 K	0.0592	0.0405
299.05 K	0.0682	0.0463
300.75 K	–	0.0519
301.05 K	0.0764	–
303.55 K	–	0.0649
303.95 K	0.0903	–
306.35 K	–	0.0824
306.95 K	0.11	–
308.25 K	–	0.0988
308.45 K	0.117	–
310.15 K	–	0.116
310.45 K	0.133	–
312.95 K	–	0.149
313.2 K	0.164	–
315.65 K	–	0.187
316.25 K	0.2	–
317.35 K	–	0.222
318.95 K	0.251	–
319.45 K	–	0.297
322.05 K	–	0.355
322.65 K	0.315	–
326.05 K	0.387	–
328.65 K	0.442	–
